Measurements from PubChem BioAssay AID330 (DTP/NCI, 2004).
Where “and” joins values, the source holds several entries; their conditions need not be identical. Equal values may be shown once. Toxic doses and inconclusive results are not listed.

Tested on: P388 leukemia ip, CD2F1 mice, survival T/C
Assay: NCI In Vivo Anticancer Drug Screen. Data for tumor model P388 Leukemia (intraperitoneal) in CD2F1 (CDF1) mice
Conditions: endpoint: median survival time, higher = longer survival
Procedure, shortened: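 Mice carrying the transplanted tumor received test compound or vehicle. Survival was recorded in each group, and the value is the treated-group measurement divided by that of the vehicle-treated control group.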

[1] = dose: 50.0 mg/kg/injection, schedule: Q01DX005 (ip), vehicle: Klucel (hydroxypropylcellulose) (HPC)
[2] = dose: 100.0 mg/kg/injection, schedule: Q01DX005 (ip), vehicle: Klucel (hydroxypropylcellulose) (HPC)
[3] = dose: 200.0 mg/kg/injection, schedule: Q01DX005 (ip), vehicle: Klucel (hydroxypropylcellulose) (HPC)

c1ccc(C2=NCC(c3ccccc3)(C3(c4ccccc4)SCCCS3)O2)cc1 (stereo unspecified)
T/C (dose: 100.0 mg/kg/injection, schedule: Q04DX003 (ip), vehicle: saline with Tween-80): 95 % of control
T/C (dose: 200.0 mg/kg/injection, schedule: Q04DX003 (ip), vehicle: saline with Tween-80): 97 % of control
T/C (dose: 400.0 mg/kg/injection, schedule: Q04DX003 (ip), vehicle: saline with Tween-80): 91 % of control

O=c1oc(-c2cc([N+](=O)[O-])ccc2Cl)nc2ccccc12
T/C (dose: 33.0 mg/kg/injection, schedule: Q04DX003 (ip), vehicle: saline with Tween-80): 100 % of control
T/C (dose: 50.0 mg/kg/injection, schedule: Q04DX003 (ip), vehicle: saline with Tween-80): 100 % of control
T/C (dose: 75.0 mg/kg/injection, schedule: Q04DX003 (ip), vehicle: saline with Tween-80): 99 % of control

CC1NNC(=O)C1(Br)Br (stereo unspecified)
T/C (dose: 6.25 mg/kg/injection, schedule: Q01DX009 (ip), vehicle: gum acacia): 100 % of control
T/C (dose: 12.5 mg/kg/injection, schedule: Q01DX009 (ip), vehicle: gum acacia): 91 % of control

CCOC(=O)c1ccc(NC(CCNC2CCCCC2)=NC(C)(C)C)cc1
T/C (dose: 50.0 mg/kg/injection, schedule: Q01DX009 (ip), vehicle: saline with Tween-80): 96 % of control
T/C (dose: 100.0 mg/kg/injection, schedule: Q01DX009 (ip), vehicle: saline with Tween-80): 97 % of control
T/C (dose: 200.0 mg/kg/injection, schedule: Q01DX009 (ip), vehicle: saline with Tween-80): 96 % of control

CC1CN=C(c2ccc(NC(=O)NCCCCCCCCCNC(=O)Nc3ccc(C4=NCC(C)N4)cc3)cc2)N1 (stereo unspecified)
T/C (dose: 12.5 mg/kg/injection, schedule: Q01DX005 (ip), vehicle: saline + Tween-80 + alcohol): 106 % of control and 110 % of control
T/C (dose: 25.0 mg/kg/injection, schedule: Q01DX005 (ip), vehicle: saline + Tween-80 + alcohol): 105 % of control and 118 % of control
T/C (dose: 50.0 mg/kg/injection, schedule: Q01DX005 (ip), vehicle: saline + Tween-80 + alcohol): 110 % of control and 121 % of control
T/C (dose: 100.0 mg/kg/injection, schedule: Q01DX005 (ip), vehicle: saline + Tween-80 + alcohol): 108 % of control

O=C(O)C12C3C4C5C3C3(OCCO3)C1(Br)C5C42 (stereo unspecified)
T/C (dose: 60.0 mg/kg/injection, schedule: Q01DX005 (ip), vehicle: saline with Tween-80): 100 % of control
T/C (dose: 120.0 mg/kg/injection, schedule: Q01DX005 (ip), vehicle: saline with Tween-80): 102 % of control
T/C (dose: 240.0 mg/kg/injection, schedule: Q01DX005 (ip), vehicle: saline with Tween-80): 107 % of control

CCCCCCCN(CCCCCCC)CC(O)c1c(OC)c2cc(Cl)ccc2c2ccc(Cl)cc12 (stereo unspecified)
T/C (dose: 10.0 mg/kg/injection, schedule: Q01DX009 (ip), vehicle: saline with Tween-80): 94 % of control
T/C (dose: 20.0 mg/kg/injection, schedule: Q01DX009 (ip), vehicle: saline with Tween-80): 90 % of control
T/C (dose: 40.0 mg/kg/injection, schedule: Q01DX009 (ip), vehicle: saline with Tween-80): 92 % of control

c1ccc(CSCCOCCOCCSCc2ccccn2)nc1
T/C [1]: 101 % of control
T/C [2]: 108 % of control
T/C [3]: 104 % of control

NC(=O)C1CC2(c3ccccn3)c3ccccc3C1c1ccccc12 (stereo unspecified)
T/C [1]: 96 % of control
T/C [2]: 90 % of control
T/C [3]: 88 % of control

[NH-]c1ncnc2[nH]c(C[N-]C(Cc3cnc[nH]3)C(=O)O)nc12.[Pd+2] (stereo unspecified)
T/C (dose: 50.0 mg/kg/injection, schedule: Q01DX005 (ip), vehicle: saline): 90 % of control
T/C (dose: 100.0 mg/kg/injection, schedule: Q01DX005 (ip), vehicle: saline): 97 % of control
T/C (dose: 200.0 mg/kg/injection, schedule: Q01DX005 (ip), vehicle: saline): 94 % of control

c1ccc(CCNC2CCc3ccccc3C2)cc1 (stereo unspecified)
T/C (dose: 50.0 mg/kg/injection, schedule: Q01DX005 (ip), vehicle: saline with Tween-80): 93 % of control
